Data on 23 compounds can be found in PubChem BioAssay (NCI).

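Following 48 hours of exposure in 96-well plates, responses at five concentrations were used to interpolate endpoints linearly. The concentration for 50% growth inhibition is given as GI50. TGI is the concentration that stops growth completely.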

Among the test systems are MOLT-4 leukemia; HCC-2998 colon; EKVX NSCLC; HOP-92 NSCLC; KM12 colon; UO-31 renal; COLO 205 colon; SK-MEL-2 melanoma; HT29 colon.
Holding throughout (experiment): NCI tumour cell line growth inhibition, 48 h

Take `CC(O)C(NC(=O)c1ccccc1)C(=O)N(Cc1ccccc1)Cc1ccccc1` (stereo unspecified): the TGI in the experiment on MOLT-4 leukemia, in the experiment on HCC-2998 colon, with EKVX NSCLC, in the experiment on HOP-92 NSCLC, in the experiment on KM12 colon and in the experiment on UO-31 renal was above 100 µM each time. Besides, the TGI with COLO 205 colon and with SK-MEL-2 melanoma was above 100 µM in each case.
Consider `O=C1CCCC(O)=C1SC1=C(O)CCCC1=O`, for which the TGI in the experiment with MOLT-4 leukemia, in the experiment on HT29 colon, with HCC-2998 colon, in the experiment with EKVX NSCLC, in the experiment with HOP-92 NSCLC and in the experiment on KM12 colon was above 100 µM throughout. The TGI in the experiment on UO-31 renal, in the experiment with COLO 205 colon and in the experiment on SK-MEL-2 melanoma was above 100 µM each time.
In the case of `COc1ccccc1NC(=O)C1=C(C)NC(C)=C(C(=O)Nc2ccccc2OC)C1c1cccc2ccccc12`, the TGI in the experiment with MOLT-4 leukemia was above 100 µM; in the experiment with HT29 colon it was above 100 µM; in the experiment with HCC-2998 colon, above 100 µM; with EKVX NSCLC, above 100 µM; with HOP-92 NSCLC, 7.87 µM; with KM12 colon, above 100 µM. For the same compound, the TGI with UO-31 renal, in the experiment with COLO 205 colon and with SK-MEL-2 melanoma was above 100 µM in each case.
Take `N#Cc1cc([N+](=O)[O-])ccc1NC(=O)C(=O)C(C(=O)c1ccc2ccccc2c1)C1OCc2ccccc21` (stereo unspecified): the TGI in the experiment with MOLT-4 leukemia stood at 21.8 µM; in the experiment on HT29 colon, 32.5 µM; in the experiment with HCC-2998 colon, 22.7 µM; in the experiment with EKVX NSCLC, 37.4 µM; in the experiment with HOP-92 NSCLC, 21.6 µM; in the experiment on KM12 colon, 30.4 µM. Also, the TGI with UO-31 renal worked out at 26.5 µM; with COLO 205 colon, 27.8 µM; in the experiment with SK-MEL-2 melanoma, 16.2 µM.
As for `CCCC(=O)c1ccc(=O)n(C)c1`, the TGI in the experiment with MOLT-4 leukemia, in the experiment on HT29 colon, with HCC-2998 colon, in the experiment on EKVX NSCLC, in the experiment with HOP-92 NSCLC and in the experiment on KM12 colon was above 100 µM each time. The TGI with UO-31 renal, with COLO 205 colon and in the experiment with SK-MEL-2 melanoma was above 100 µM each time.
Turning to `Cc1cc(NCc2cc(Nc3ccnc4cc(Cl)ccc34)ccc2F)nc(N2CCSCC2)n1`, the GI50 in the experiment on MOLT-4 leukemia was 2120 nM; with HT29 colon it was 1770 nM; with HCC-2998 colon, 1960 nM; in the experiment with EKVX NSCLC, 2800 nM; in the experiment with HOP-92 NSCLC, 998 nM; in the experiment with UO-31 renal it was 1380 nM. Besides, the GI50 in the experiment with SK-MEL-2 melanoma was 2150 nM. Moreover, the TGI with MOLT-4 leukemia stood at 7.07 µM; in the experiment with HT29 colon it was 4.37 µM; in the experiment with HCC-2998 colon, 4.04 µM; in the experiment on EKVX NSCLC it was 83.9 µM; with HOP-92 NSCLC, 2.32 µM; with UO-31 renal it was 2.87 µM. Besides, the TGI in the experiment on SK-MEL-2 melanoma was 4.71 µM.
Turning to `CC(=O)OCCOCNC(=S)N/N=C(\C)c1cccs1`, the TGI in the experiment with MOLT-4 leukemia, in the experiment with HT29 colon, in the experiment on HCC-2998 colon, in the experiment with EKVX NSCLC, with KM12 colon and with UO-31 renal was above 100 µM in each case. Moreover, the TGI in the experiment with COLO 205 colon and in the experiment on SK-MEL-2 melanoma was above 100 µM in each case.
Regarding `CCC(C)c1cccc(C)c1NC(=O)C(=O)Cc1nc2ccccc2s1` (stereo unspecified), the TGI in the experiment with MOLT-4 leukemia, in the experiment on HT29 colon, with HCC-2998 colon, with EKVX NSCLC, with HOP-92 NSCLC and with KM12 colon was above 100 µM in each case. Moreover, the TGI in the experiment on UO-31 renal, in the experiment with COLO 205 colon and with SK-MEL-2 melanoma was above 100 µM throughout.
As to `CCOc1ccc(NCC2CC/C(=C\c3ccc(Cl)cc3)C2=O)cc1` (stereo unspecified), the TGI was 69.8 µM with MOLT-4 leukemia; above 56.2 µM in the experiment with HT29 colon; 18 µM in the experiment on HCC-2998 colon; above 73.8 µM in the experiment with EKVX NSCLC; 41.6 µM with HOP-92 NSCLC; above 44 µM in the experiment with KM12 colon. For the same compound, the TGI with UO-31 renal was above 58.5 µM; in the experiment with COLO 205 colon it was above 52.5 µM; in the experiment on SK-MEL-2 melanoma, 58.7 µM.
As to `ClC1c2ccccc2C2(c3ccccc3)OOC1(c1ccccc1)O2` (stereo unspecified), the TGI in the experiment on MOLT-4 leukemia stood at 3.56 µM; in the experiment with HT29 colon it was 3.69 µM; with HCC-2998 colon, 6.24 µM; in the experiment with EKVX NSCLC, 4.62 µM; in the experiment on HOP-92 NSCLC it was 0.987 µM; in the experiment on KM12 colon, 3.63 µM. In addition, the TGI with UO-31 renal was found to be 3.06 µM; in the experiment with COLO 205 colon it was 4.58 µM; with SK-MEL-2 melanoma it was 5.64 µM.
For the compound `O=C(Oc1ccc2c(-c3ccccc3)c(C(=O)Nc3ccc(Cl)cc3)c(=O)oc2c1)c1ccccc1`, the TGI with MOLT-4 leukemia, in the experiment on HT29 colon, in the experiment on EKVX NSCLC, with KM12 colon, in the experiment with UO-31 renal and with COLO 205 colon was above 100 µM each time. The same compound showed a TGI in the experiment with SK-MEL-2 melanoma above 100 µM.
As for `NC(CCc1ncc(-c2ccccc2)s1)C(=O)O` (stereo unspecified), the TGI with MOLT-4 leukemia, with HT29 colon, with HCC-2998 colon, in the experiment with EKVX NSCLC, with HOP-92 NSCLC and in the experiment with KM12 colon was above 100 µM in each case. Also, the TGI in the experiment with UO-31 renal and in the experiment with COLO 205 colon was above 100 µM each time.
In the case of `CC(C)CN1CC(C)C(=O)NC1=O` (stereo unspecified), the TGI in the experiment with MOLT-4 leukemia, in the experiment on HT29 colon, in the experiment with EKVX NSCLC, in the experiment with HOP-92 NSCLC, with KM12 colon and in the experiment on UO-31 renal was above 100 µM in each case. The TGI with COLO 205 colon and in the experiment with SK-MEL-2 melanoma was above 100 µM each time.
For the compound `OCC(O)COc1c(Cl)cc(Cl)cc1Cl` (stereo unspecified), the TGI in the experiment with MOLT-4 leukemia was above 31.6 µM; in the experiment with HT29 colon it was above 100 µM; in the experiment with HCC-2998 colon it was above 100 µM; with EKVX NSCLC, above 100 µM; with HOP-92 NSCLC, above 100 µM; with KM12 colon, above 100 µM. In addition, the TGI in the experiment with UO-31 renal, in the experiment on COLO 205 colon and with SK-MEL-2 melanoma was above 100 µM each time.
As for `CCOC(=O)C(=O)Nc1ccccc1OCC`, the TGI in the experiment on MOLT-4 leukemia, in the experiment with HT29 colon, in the experiment on HCC-2998 colon, in the experiment on EKVX NSCLC, with HOP-92 NSCLC and with KM12 colon was above 100 µM in each case. The TGI in the experiment on UO-31 renal and with SK-MEL-2 melanoma was above 100 µM in each case.
As for `CN1C(=O)CCC1c1ccc2c(c1)oc(=O)n2C` (stereo unspecified), the TGI with MOLT-4 leukemia, in the experiment on HT29 colon, in the experiment with HCC-2998 colon, in the experiment on EKVX NSCLC, in the experiment on KM12 colon and with UO-31 renal was above 100 µM throughout. The TGI with COLO 205 colon and with SK-MEL-2 melanoma was above 100 µM throughout.
`O=C(/C=C/c1ccccc1O)c1cccc2ccccc12`: the TGI in the experiment with MOLT-4 leukemia was above 83.7 µM; with HT29 colon, above 100 µM; in the experiment with HCC-2998 colon it was above 100 µM; in the experiment with EKVX NSCLC, above 100 µM; with HOP-92 NSCLC it was above 100 µM; with KM12 colon, above 100 µM. The TGI in the experiment with UO-31 renal is above 100 µM; in the experiment with COLO 205 colon it was above 68.6 µM; with SK-MEL-2 melanoma, above 100 µM.
Turning to `CN(C)C(=S)/N=c1\ss/c(=N\C(=S)N(C)C)n1Cc1ccco1`, the TGI in the experiment with MOLT-4 leukemia, in the experiment with HCC-2998 colon, in the experiment with KM12 colon, with UO-31 renal, with COLO 205 colon and in the experiment with SK-MEL-2 melanoma was above 100 µM in each case.
In the case of `Nc1c(C(=O)NC23CC4CC(CC(C4)C2)C3)[n+]([O-])c2ccccc2[n+]1[O-]`, the TGI in the experiment with MOLT-4 leukemia, in the experiment on HT29 colon, in the experiment with HCC-2998 colon, in the experiment on EKVX NSCLC, with HOP-92 NSCLC and in the experiment with KM12 colon was above 100 µM each time. In addition, the TGI with UO-31 renal, in the experiment on COLO 205 colon and in the experiment on SK-MEL-2 melanoma was above 100 µM throughout.
Turning to `O=C1CCNC(=O)NC1`, the TGI with MOLT-4 leukemia was 56.6 µM; in the experiment on HT29 colon it was above 100 µM; with EKVX NSCLC it was above 100 µM; with HOP-92 NSCLC it was above 100 µM; with KM12 colon, above 100 µM; in the experiment on UO-31 renal, above 100 µM. The TGI with COLO 205 colon and with SK-MEL-2 melanoma was above 100 µM throughout.
As for `Cn1nc2ccc3nccc(NCCNCCO)c3c2n1`, the TGI in the experiment on MOLT-4 leukemia was 69 µM; in the experiment with HT29 colon, 70 µM; in the experiment on HCC-2998 colon it was above 100 µM; with HOP-92 NSCLC, above 100 µM; in the experiment with KM12 colon, above 100 µM; with UO-31 renal it was 90.9 µM. In the experiment with COLO 205 colon, this compound displayed a TGI of 44 µM.
For the compound `COc1cc(C(O)C(=O)c2cnc3cc([N+](=O)[O-])ccc3n2)ccc1O` (stereo unspecified), the TGI with MOLT-4 leukemia, in the experiment with HT29 colon, in the experiment on HCC-2998 colon, in the experiment with EKVX NSCLC, in the experiment with KM12 colon and in the experiment on UO-31 renal was above 100 µM in each case. Also, the TGI with COLO 205 colon and with SK-MEL-2 melanoma was above 100 µM each time.
As to `COc1ccc(N=Nc2c(-c3ccccc3)nn(C(=O)CC(=O)Nc3ccccc3Cl)c2-c2ccccc2)cc1`, the TGI with MOLT-4 leukemia was 8.85 µM; in the experiment with HT29 colon it was above 100 µM; with HCC-2998 colon, above 100 µM; with EKVX NSCLC, above 100 µM; with HOP-92 NSCLC, above 100 µM; with KM12 colon, above 100 µM. For the same compound, the TGI in the experiment on UO-31 renal and with COLO 205 colon was above 100 µM throughout.
